Test system: S. Typhimurium PhoP-regulated promoter GFP reporter, 4 h
Test: inhibitors of PhoP regulon expression, primary screen, Salmonella Typhimurium, GFP reporter (AID 1863)

Point of comparison: `Cc1ccc(C(c2cc(Cl)c3cccnc3c2O)N2CCN(C)CC2)cc1` (stereo not drawn), IC50 55.5 µM. Against it:
- C#CCOCCOCCOCCNc1nc(N2CCN(C(=O)CCCCCCCCCCNC(=O)[C@H]([C@@H](C)CC)n3cc(CCCCN=C(N)N)nn3)CC2)nc(N2CCN(C(=O)CCCCCCCCCCNC(=O)[C@H]([C@@H](C)CC)n3cc(CCCCN=C(N)N)nn3)CC2)n1 — within 1.5-fold, 78.7 µM
- O=C(Nc1nc(-c2ccccn2)cs1)c1ccc(Cl)s1 — within 1.5-fold, 69.3 µM
- O=c1c(O)cccc2cc(O)c(O)c(O)c12 — 2-fold lower, 27.5 µM
- Clc1ccc(CNCc2cccs2)cc1Cl — within 1.5-fold, 73.3 µM
- C/C(=C\C(=O)OCCCCCCCCC(=O)O)C[C@@H]1OC[C@H](C[C@@H]2O[C@H]2[C@@H](C)[C@H](C)O)[C@@H](O)[C@H]1O — 5.3-fold lower, 10.5 µM
- Cc1c2ccncc2c(C)c2c1[nH]c1ccccc12 — 2.1-fold lower, 26.3 µM
- N=c1n(CC(=O)c2ccc(Br)s2)c2ccccc2n1Cc1ccccc1 — within 1.5-fold, 68.3 µM
- CN1/C(=C\C=C\C2=[N+](C)c3ccc4ccccc4c3C2(C)C)C(C)(C)c2ccccc21 — 5.4-fold lower, 10.2 µM
- O=C(Nc1ccc(Cl)c(Cl)c1)Nc1ccccc1O — 2.4-fold higher, 135 µM
- CCCCCCCCCCCCCCCC[n+]1cccc2ccccc21 — 2.2-fold lower, 24.9 µM
- Cc1scc(C(=O)N/N=C/c2ccc([N+](=O)[O-])o2)c1C — 2-fold higher, 110 µM
- CCCCCCCCCCOC(=O)Cn1c(COc2ccc(Cl)cc2)[n+](C)c2ccccc21 — 2.8-fold lower, 19.5 µM
- Cn1cnc([N+](=O)[O-])c1Oc1cccc(O)c1 — 2-fold higher, 113 µM
- Nc1c(Cl)ncnc1N/N=C/c1ccccn1 — 1.8-fold lower, 30.8 µM
- Clc1ccc(-c2c[n+](Cc3ccc(Cl)cc3Cl)c3n2CCCCC3)cc1 — 2.3-fold higher, 125 µM
- CCCc1nnc(NC(=O)c2cn(CC)c3cc(N4CCN(C)CC4)c(F)cc3c2=O)s1 — within 1.5-fold, 67.3 µM
- CN1CCN(CCCN2c3ccccc3Sc3ccc(Cl)cc32)CC1 — within 1.5-fold, 71.2 µM
- Clc1ccc(OCCCNCc2ccccc2)c(Br)c1 — within 1.5-fold, 68.7 µM
- Cc1nc([N+](=O)[O-])c(Br)n1CC(=O)c1ccccc1 — 2.6-fold higher, 146 µM
- CCOC(=O)N1CCN(C(c2cccnc2)c2ccc3cccnc3c2O)CC1 (stereo not drawn) — 2.2-fold higher, 122 µM
- Nc1nonc1-n1nnc(C(=O)N/N=C/c2cc(Br)ccc2O)c1CSC1=NCCS1 — 2.2-fold higher, 122 µM
- C=CC1=C(C(=O)O)N2C(=O)[C@@H](NC(=O)/C(=N/OCC(=O)O)c3csc(N)n3)[C@H]2SC1 — 2.5-fold lower, 22.4 µM
- NC1=NC[C@H](Cc2ccccc2)N1CCCCC1CCCCC1 — within 1.5-fold, 47.7 µM
- CCn1cc(C(=O)NCCO)c(=O)c2cc(F)c(N3CCN(C)CC3)cc21 — 2.5-fold lower, 22.4 µM
- Oc1cccc(/C=N/NC(=S)Nc2cccnc2)c1O — within 1.5-fold, 45.6 µM
- Cc1nc2c(=O)n(C)c(=O)nc-2n(C)n1 — 48-fold lower, 1.15 µM
- O=C(N/N=C/c1ccc([N+](=O)[O-])o1)c1ccc(O)cc1 — 1.7-fold lower, 33.3 µM
- O=[N+]([O-])c1cc(CN2CCCC2)c2cccnc2c1O — within 1.5-fold, 71.5 µM
- C#CCOCCOCCOCCNc1nc(N2CCN(C(=O)CCCCCCCCCCNC(=O)[C@H](CO)n3cc(CCCCCN)nn3)CC2)nc(N2CCN(C(=O)CCCCCCCCCCNC(=O)[C@H](CCCN=C(N)N)n3cc(C[C@@H](C)CC)nn3)CC2)n1 — 1.8-fold higher, 102 µM
- Nc1ccc2c(c1)C(=O)C(=O)c1ccccc1-2 — 4.7-fold lower, 11.9 µM
- O=C1C=C(N2CCOCC2)c2ccccc2C1=O — within 1.5-fold, 51.2 µM
- COc1cc(Cc2cc(N)nc(N)n2)cc(OC)c1OC — 11-fold lower, 4.97 µM
- Oc1ccc(/C=N/Nc2ncc(Br)cn2)c(O)c1 — 2-fold higher, 111 µM
- CCCC(=O)NC(c1cccs1)c1cc([N+](=O)[O-])c2cccnc2c1O (stereo not drawn) — within 1.5-fold, 38.2 µM
- CCc1ccc(-c2nn(-c3ccccc3)cc2CSC(=N)N)cc1 — within 1.5-fold, 37.1 µM
- O=[N+]([O-])c1ccc(N/N=C/c2ccc[nH]2)cc1 — within 1.5-fold, 75 µM
- COc1ccccc1CNCCc1ccc(F)cc1 — within 1.5-fold, 42.6 µM
- Cc1ccc(C(=O)N/N=C/c2cc(Br)ccc2O)cn1 — within 1.5-fold, 76.5 µM
- Fc1ccccc1CCNCc1ccccc1 — within 1.5-fold, 58.8 µM
- O=C1C(SCCO)=C(SCCO)C(=O)c2ccccc21 — within 1.5-fold, 70.9 µM
- O=C(N/N=C/c1sc2ccccc2c1O)c1cccc2ccccc12 — within 1.5-fold, 42.4 µM
- CN(C)CCCN(C(=O)CCc1ccccc1)c1nc2ccc(Cl)cc2s1 — within 1.5-fold, 48.2 µM
- Cc1cccc(Nc2cc(C)c3c(O)cccc3n2)c1C — within 1.5-fold, 39.2 µM
- O=S1(=O)Nc2c(ccc3cccnc23)-c2ccccc21 — 7.2-fold lower, 7.72 µM
- Cc1cc(C)n(-c2nc(NCCN(C)C)c3c4c(sc3n2)CCCC4)n1 — 1.9-fold higher, 103 µM
- CC(C(=O)c1ccc(-c2ccccc2)cc1)[n+]1cccc(NC(=O)c2ccccc2)c1 (stereo not drawn) — within 1.5-fold, 78.3 µM
- CC[n+]1c(/C=C/N(C)c2ccccc2)n(-c2ccccc2)c2ccc(-c3nc4ccccc4s3)cc21 — 2.1-fold lower, 26.5 µM
- CCCCCCCCCCCCCCCC[n+]1ccc(/C=N/O)cc1 — 1.7-fold lower, 33 µM
- Nc1cc(Cl)c2nonc2c1[N+](=O)[O-] — within 1.5-fold, 57.6 µM
- C[C@H]1c2cccc(O)c2C(O)=C2C(=O)C3(O)C(O)=C(C(N)=O)C(=O)[C@@H](N(C)C)[C@@H]3[C@@H](O)[C@@H]21 (stereo partly drawn) — 8.4-fold lower, 6.6 µM
- CC1COc2c(N3CCN(C)CC3)c(F)cc3c(=O)c(C(=O)O)cn1c23 (stereo not drawn) — 140-fold lower, 0.39 µM
- N=c1n(Cc2ccccc2)c2ccccc2n1CC(O)COc1ccc(Cl)cc1Cl (stereo not drawn) — 1.6-fold lower, 35.1 µM
- O=[N+]([O-])c1ccc(O)c(/C=N/Nc2ccccn2)c1 — 3.3-fold lower, 17 µM
- Cc1cc(SCC(=O)N/N=C/c2ccc(O)c(O)c2O)c(C)cc1Br — within 1.5-fold, 41.6 µM
- CCC(C)N1CCC2(CC1)N=c1c(c3c4c5c(C)c(O)c3c(O)c1=NC(=O)C(C)=CC=C[C@H](C)[C@H](O)[C@@H](C)[C@@H](O)[C@@H](C)[C@H](OC(C)=O)[C@H](C)[C@@H](OC)C=CO[C@@](C)(O5)C4=O)N2 (stereo partly drawn) — 20-fold lower, 2.72 µM
- C=C1c2c(Cl)ccc(O)c2C(O)=C2C(=O)[C@]3(O)C(O)=C(C(N)=O)C(=O)[C@@H](N(C)C)[C@@H]3[C@@H](O)C12 (stereo partly drawn) — 25-fold lower, 2.22 µM
- CC(=O)N1CCN(c2cc3c(cc2F)c(=O)c(C(=O)O)cn3C2CC2)CC1 — 3.4-fold lower, 16.3 µM
- COc1c(N2CCN[C@H](C)C2)c(F)cc2c(=O)c(C(=O)O)cn(C3CC3)c12 — 150-fold lower, 0.36 µM
- Cc1cc(C(=O)N/N=C/c2ccc([N+](=O)[O-])s2)n[nH]1 — within 1.5-fold, 42.6 µM
- Nc1nonc1C(=O)N/N=C/c1cc(Br)ccc1O — 3.2-fold lower, 17.1 µM
- C#CCOCCOCCOCCNc1nc(N2CCN(C(=O)CCCCCCCCCCNC(=O)[C@H]([C@@H](C)CC)n3cc(CCCCN=C(N)N)nn3)CC2)nc(N2CCN(C(=O)CCCCCCCCCCNC(=O)[C@H](CCCN=C(N)N)n3cc(C[C@@H](C)CC)nn3)CC2)n1 — within 1.5-fold, 75.2 µM
- COC12C(COC(N)=O)C3=C(C(=O)C(C)=C(N)C3=O)N1CC1C2N1C (stereo not drawn) — 3.4-fold lower, 16.3 µM
- CCn1cc(C(=O)O)c(=O)c2cc(F)c(N3CCN(C(=S)NC(=O)c4ccccc4)CC3)cc21 — 5.3-fold lower, 10.5 µM
- CCCCCCCCCCOC(=O)Cn1c(COc2ccccc2OC)[n+](C)c2ccccc21 — 1.9-fold lower, 28.6 µM
- CC(C)NC1=C(Cl)C(=O)c2ccccc2C1=O — within 1.5-fold, 75.5 µM
- CCc1ccc(NC(=O)C[n+]2cc(-c3ccc(C)cc3)n3c2CCC3)cc1 — 1.9-fold higher, 106 µM
- NCC12CC3CC(C1)CC(c1ccc(Br)cc1)(C3)C2 — within 1.5-fold, 61.6 µM
- CCn1cc(C(=O)O)c(=O)c2cc(F)c(N3CCN(C(=O)Nc4ccccc4)CC3)cc21 — 1.7-fold lower, 32.1 µM
- CN1CCc2c(sc(NC(=O)c3ccc([N+](=O)[O-])o3)c2C(N)=O)C1 — within 1.5-fold, 52.8 µM
- Cc1nnc(N/N=C/c2ccccn2)[nH]c1=O — within 1.5-fold, 42 µM
- COc1cc(C)c(Cc2cnc(N)nc2N)cc1OC — 4.7-fold lower, 11.7 µM
- O=C(N/N=C/c1ccc([N+](=O)[O-])s1)C(O)c1ccccc1 (stereo not drawn) — 1.5-fold higher, 83.6 µM
